A short description of test [1]: Inhibition of His-tagged TEAD1 (unknown origin) to YAP (unknown origin) protein-protein interaction preincubated for 30 mins followed by biotinylated YAP addition and measured after 60 mins by TR-FRET assay. Set-up: species or system Homo sapiens. For orientation: Time-resolved FRET reads energy transfer from a long-lived donor to a nearby acceptor.
Test [2] is described as follows: Inhibition of His-tagged TEAD1 (unknown origin) to TAZ (unknown origin) protein-protein interaction preincubated for 30 mins followed by biotinylated YAP addition and measured after 60 mins by TR-FRET assay. Set-up: species or system Homo sapiens.
Test [3] in a line: Antiproliferative activity against human HCC1576 cells by CellTiter-Glo luminescent cell viability assay. Type of test: functional, cell-based.
The nature of test [4]: Inhibition of His-tagged TEAD4 (unknown origin) to YAP (unknown origin) protein-protein interaction preincubated for 30 mins followed by biotinylated YAP addition and measured after 60 mins by TR-FRET assay. Set-up: species or system Homo sapiens.
A short description of test [5]: Inhibition of His-tagged TEAD2 (unknown origin) to TAZ (unknown origin) protein-protein interaction preincubated for 30 mins followed by biotinylated YAP addition and measured after 60 mins by TR-FRET assay. The arrangement: species or system Homo sapiens.
Test [6] has as its system OVCAR-8. The test is described as follows: Antiproliferative activity against human OVCAR-8 cells by CellTiter-Glo luminescent cell viability assay. Type of test: functional, cell-based. In general terms: ATP-based viability assays read luminescence as a measure of living cells.
Test [7] can be described thus: Inhibition of His-tagged TEAD3 (unknown origin) to YAP (unknown origin) protein-protein interaction preincubated for 30 mins followed by biotinylated YAP addition and measured after 60 mins by TR-FRET assay. The arrangement: species or system Homo sapiens.
A short description of test [8]: Inhibition of His-tagged TEAD2 (unknown origin) to YAP (unknown origin) protein-protein interaction preincubated for 30 mins followed by biotinylated YAP addition and measured after 60 mins by TR-FRET assay. The arrangement: species or system Homo sapiens.
Test [9] relates to Transcriptional enhancer factor TEF-5-Lipid. The test is described as follows: Inhibition of His-tagged TEAD3 (unknown origin) to lipid (unknown origin) interaction preincubated for 30 mins followed by biotinylated lipid addition and measured after 60 mins by TR-FRET assay. Set-up: species or system Homo sapiens.
Test [10] deals with Transcriptional enhancer factor TEF-1-Lipid. The test is described as follows: Inhibition of His-tagged TEAD1 (unknown origin) to lipid (unknown origin) interaction preincubated for 30 mins followed by biotinylated lipid addition and measured after 60 mins by TR-FRET assay. Set-up: species or system Homo sapiens.
Test [11] is described as follows: Inhibition of His-tagged TEAD3 (unknown origin) to TAZ (unknown origin) protein-protein interaction preincubated for 30 mins followed by biotinylated YAP addition and measured after 60 mins by TR-FRET assay. Set-up: species or system Homo sapiens.
The nature of test [12]: Antiproliferative activity against human HCC1576 cells assessed as minimum efficacy by CellTiter-Glo luminescent cell viability assay. It is filed as functional.
Test [13] can be described thus: Antiproliferative activity against human VMRC-LCD cells by CellTiter-Glo luminescent cell viability assay. It is filed as functional, cell-based.
Test [14] has as its system Transcriptional enhancer factor TEF-3-Lipid. The test can be described thus: Inhibition of His-tagged TEAD4 (unknown origin) to lipid (unknown origin) interaction preincubated for 30 mins followed by biotinylated lipid addition and measured after 60 mins by TR-FRET assay. Set-up: species or system Homo sapiens.
The nature of test [15]: Inhibition of His-tagged TEAD4 (unknown origin) to TAZ (unknown origin) protein-protein interaction preincubated for 30 mins followed by biotinylated YAP addition and measured after 60 mins by TR-FRET assay. Set-up: species or system Homo sapiens.
The subject of test [16] is Transcriptional enhancer factor TEF-4-Lipid. The test can be described thus: Inhibition of His-tagged TEAD2 (unknown origin) to lipid (unknown origin) interaction preincubated for 30 mins followed by biotinylated lipid addition and measured after 60 mins by TR-FRET assay. The arrangement: species or system Homo sapiens.
In test [17] the test system is OVCAR-8. The test is described as follows: Antiproliferative activity against human OVCAR-8 cells assessed as minimum efficacy by CellTiter-Glo luminescent cell viability assay. Type of test: functional.
For test [18], the system named is MCF7. The test is described as follows: Antiproliferative activity against human MCF7 cells incubated for 48 hrs by MTT assay. It is filed as functional, cell-based. The following applies: MCF7, 48 h.
The subject of test [19] is PC-3. The test is described as follows: Antiproliferative activity against human PC-3 cells incubated for 48 hrs by MTT assay. As to conditions: PC-3, 48 h. It is filed as functional, cell-based. A general note: Tetrazolium assays rely on reduction of a dye to a coloured formazan, in cell work by metabolically active cells.
In test [20] the test system is HGC-27. The test can be described thus: Antiproliferative activity against human HGC-27 cells incubated for 48 hrs by MTT assay. Type of test: functional, cell-based. As to conditions: HGC-27, 48 h.
Test [21] deals with MGC-803. The test can be described thus: Antiproliferative activity against human MGC-803 cells incubated for 48 hrs by MTT assay. It is filed as functional, cell-based. As to conditions: MGC-803, 48 h.
Test [22] deals with SGC-7901. The test is described as follows: Antiproliferative activity against human SGC-7901 cells incubated for 48 hrs by MTT assay. As to conditions: SGC-7901, 48 h. It is filed as functional, cell-based.
The test system of test [23] is HCT-116. The test is described as follows: Antiproliferative activity against human HCT-116 cells incubated for 48 hrs by MTT assay. Type of test: functional, cell-based. The following applies: HCT-116, 48 h.
In test [24] the test system is C6. The test is described as follows: Antiproliferative activity against rat C6 cells incubated for 48 hrs by CCK8 assay. Type of test: functional, cell-based. As to conditions: C6, 48 h.
Test [25] relates to U-251. The test is described as follows: Antiproliferative activity against human U251 cells incubated for 48 hrs by CCK8 assay. Type of test: functional, cell-based. The following applies: U-251, 48 h.
A short description of test [26]: Antiproliferative activity against CMT47 cells incubated for 48 hrs. It is filed as functional. The following applies: Canis lupus familiaris, read-out: ED50 (the source's name).
The subject of test [27] is HuCCT-1. The test can be described thus: Antiproliferative activity against human HuCCT-1 cells incubated for 24 hrs by WST-1 assay. The following applies: HuCCT-1, 24 h. Type of test: functional, cell-based.
The nature of test [28]: Antiproliferative activity against CMT9 cells incubated for 48 hrs. Type of test: functional. The following applies: Canis lupus familiaris, read-out: ED50 (the source's name).
Test [29] concerns MDA-MB-231. The test is described as follows: Antiproliferative activity against human MDA-MB-231 cells incubated for 96 hrs by MTT assay. The following applies: MDA-MB-231, 96 h. It is filed as functional, cell-based.
Test [30] is described as follows: Antiproliferative activity against human HBC5 cells incubated for 96 hrs by MTT assay. It is filed as functional, cell-based. The following applies: HBC5, 96 h.
A short description of test [31]: Antiproliferative activity against mouse GL261 cells incubated for 48 hrs by CCK8 assay. It is filed as functional, cell-based. As to conditions: GL261, 48 h.
The subject of test [32] is GBM. The test is described as follows: Antiproliferative activity against human GBM cells incubated for 48 hrs by CCK8 assay. Type of test: functional, cell-based.
The nature of test [33]: Antiproliferative activity against […] cells incubated for 48 hrs by CCK8 assay. It is filed as functional, cell-based. As to conditions: U373 MG.
Test [34] deals with U-251. The test is described as follows: Antiproliferative activity against human U-251 cells incubated for 48 hrs by CCK8 assay. Type of test: functional, cell-based. The following applies: U-251, 48 h.
The test system of test [35] is U-87 MG. The test can be described thus: Antiproliferative activity against human U87 cells incubated for 48 hrs by CCK8 assay. It is filed as functional, cell-based, U-87MG ATCC.
Test [36] deals with LN-229. The test is described as follows: Antiproliferative activity against LN-229 cells incubated for 48 hrs by CCK8 assay. It is filed as functional, cell-based. The following applies: Homo sapiens, LN-229, 48 h.
The test system of test [37] is MDA-MB-231. The test is described as follows: Antiproliferative activity against human MDA-MB-231 cells incubated for 72 hrs by SRB method. It is filed as functional, cell-based. As to conditions: MDA-MB-231, 72 h.
Test [38] has as its system 4T1. The test can be described thus: Antiproliferative activity against mouse 4T1 cells incubated for 72 hrs by SRB method. It is filed as functional, cell-based. The following applies: 4T1, 72 h.
Test [39] deals with MDA-MB-453. The test can be described thus: Antiproliferative activity against human MDA-MB-453 cells incubated for 96 hrs by MTT assay. The following applies: MDA-MB-453, 96 h. Type of test: functional, cell-based.
Test [40] concerns MCF7. The test is described as follows: Antiproliferative activity against human MCF7 cells incubated for 48 hrs by CCK8 assay. Type of test: functional, cell-based. As to conditions: MCF7, 48 h.
Test [41] has as its system A-375. The test can be described thus: Antiproliferative activity against human A-375 cells incubated for 72 hrs by alamar blue staining based assay. It is filed as functional, cell-based. As to conditions: A-375, 72 h.
Test [42] deals with C8161. The test can be described thus: Antiproliferative activity against human C8161 cells incubated for 72 hrs by alamar blue staining based assay. Type of test: functional, cell-based. The following applies: C8161, 72 h.
Test [43] can be described thus: Inhibition of cell invasion in human colorectal cancer cells. It is filed as functional.

Some results are limits rather than exact numbers.

What is called IC50 is the midpoint of a concentration-inhibition curve. `O=C(c1c(-c2cnccn2)nn2c(=O)cc(-c3ccc(C4CCCCC4)cc3)[nH]c12)N1CC(CF)C1`: the IC50 in test [1] is 40 nM; in [2], 40 nM; in [4], 50 nM; in test [5], 10 nM; in test [7] it was 110 nM; in test [8] it was 10 nM. For the same compound, the IC50 was 40 nM in test [9]; 50 nM in test [10]; 60 nM in [11]; over 20 nM in test [14]; 30 nM in [15]; 20 nM in test [16]. For the same compound, the EC50 in [3] is 190 nM; in test [6] it was 200 nM; in test [13], over 50000 nM. Moreover, the values for the Emin in test [12] and in test [17] were 67% and 84%, respectively.
`COc1ccc(S(=O)(=O)N(Cc2nc(C)c3ccccc3n2)c2cc(OC)c(OC)c(OC)c2)cc1`: the IC50 in test [18] stood at 810 nM; in test [19], 1040 nM; in test [20], 460 nM; in [21], 360 nM; in test [22] it was 380 nM; in test [23] it was 700 nM.
On to `O=c1ccc2ccc3occc3c2o1` [ANGELICIN], for which the IC50 in test [24] and in test [25] was 200000 nM in each case.
For `CC(C)c1c(C(=O)Nc2ccccc2)c(-c2ccccc2)c(-c2ccc(F)cc2)n1CC[C@@H](O)C[C@@H](O)CC(=O)O` [ATORVASTATIN], the EC50 in test [26] is 7000 nM; in test [28], 23500 nM. This compound also had a half-inhibitory concentration (IC50) in test [27] of under 50000 nM.
Regarding `Cc1nc(Nc2ncc(C(=O)Nc3c(C)cccc3Cl)s2)cc(N2CCN(CCO)CC2)n1` [DASATINIB ANHYDROUS], the half-maximal inhibitory concentration (IC50) in [29] and in test [30] was under 10000 nM in each case.
As to `CN(C)CCCN1c2ccccc2CCc2ccccc21` [IMIPRAMINE], the half-maximal inhibitory concentration (IC50) is 43800 nM in test [31]; 22100 nM in [32]; 346000 nM in test [33]; 24000 nM in test [34]; 13300 nM in [35]; 153000 nM in test [36].
Take `O=c1cc(-c2ccc(O)c(O)c2)oc2cc(O)cc(O)c12` [LUTEOLIN]: the IC50 in [37] was determined as 19200 nM; in test [38], 6980 nM.
Take `Cc1ccc(Nc2nccc(N(C)c3ccc4c(C)n(C)nc4c3)n2)cc1S(N)(=O)=O` [PAZOPANIB]: the IC50 in test [29], in [39] and in [30] was at most 10000 nM each time.
Consider `CCC(C)(C)C(=O)O[C@H]1C[C@@H](C)C=C2C=C[C@H](C)[C@H](CC[C@@H]3C[C@@H](O)CC(=O)O3)[C@H]21` [SIMVASTATIN], for which the IC50 in test [40] is over 10000 nM.
`CC(C)[C@]12O[C@H]1[C@@H]1O[C@@]13[C@@]1(C)CCC4=C(COC4=O)[C@@H]1C[C@@H]1O[C@@]13C2=O` [TRIPTONIDE]: the IC50 in [41] was 16.2 nM; in [42], 5.56 nM.
For the compound `N#Cc1ccc2[nH]cc(CCCCN3CCN(c4ccc5oc(C(N)=O)cc5c4)CC3)c2c1` [VILAZODONE], the “inhibition (INH)” value in test [43] was 36%.

These data come from ChEMBL document CHEMBL6071129, “Strategies that regulate Hippo signaling pathway for novel anticancer therapeutics” (Eur J Med Chem, 2024).
